The results in this text go back to article PMC7174758, “Synthesis and Biological Evaluation of HDAC Inhibitors With a Novel Zinc Binding Group” (Frontiers in Chemistry, 2020).

One series addresses T1, HDAC1 (Homo sapiens, UniProt Q13547).
T1 construct: purchased Enzo Life Sciences BML-AK511
Kind of series: Fluor de Lys HDAC1 assay kit. It is filed as biochemical. The note with it: three independent experiments, mean ± SD. Here is the method: (§1) The generated fluorescence after the deacetylation of HDAC could be detected at the wavelengths of 485 nm (excitation) and 530 nm (emission) using the microplate reader (PerkinElmer, USA). The dose response of inhibition experiment was carried out in triplicate, and the IC50 data was calculated by GraphPad Prism 5.

The next series concerns the target T2, HDAC6 (Homo sapiens, UniProt Q9UBN7).
T2 construct: purchased Enzo Life Sciences BML-AK516
T2 sequence (Q9UBN7 1-1215): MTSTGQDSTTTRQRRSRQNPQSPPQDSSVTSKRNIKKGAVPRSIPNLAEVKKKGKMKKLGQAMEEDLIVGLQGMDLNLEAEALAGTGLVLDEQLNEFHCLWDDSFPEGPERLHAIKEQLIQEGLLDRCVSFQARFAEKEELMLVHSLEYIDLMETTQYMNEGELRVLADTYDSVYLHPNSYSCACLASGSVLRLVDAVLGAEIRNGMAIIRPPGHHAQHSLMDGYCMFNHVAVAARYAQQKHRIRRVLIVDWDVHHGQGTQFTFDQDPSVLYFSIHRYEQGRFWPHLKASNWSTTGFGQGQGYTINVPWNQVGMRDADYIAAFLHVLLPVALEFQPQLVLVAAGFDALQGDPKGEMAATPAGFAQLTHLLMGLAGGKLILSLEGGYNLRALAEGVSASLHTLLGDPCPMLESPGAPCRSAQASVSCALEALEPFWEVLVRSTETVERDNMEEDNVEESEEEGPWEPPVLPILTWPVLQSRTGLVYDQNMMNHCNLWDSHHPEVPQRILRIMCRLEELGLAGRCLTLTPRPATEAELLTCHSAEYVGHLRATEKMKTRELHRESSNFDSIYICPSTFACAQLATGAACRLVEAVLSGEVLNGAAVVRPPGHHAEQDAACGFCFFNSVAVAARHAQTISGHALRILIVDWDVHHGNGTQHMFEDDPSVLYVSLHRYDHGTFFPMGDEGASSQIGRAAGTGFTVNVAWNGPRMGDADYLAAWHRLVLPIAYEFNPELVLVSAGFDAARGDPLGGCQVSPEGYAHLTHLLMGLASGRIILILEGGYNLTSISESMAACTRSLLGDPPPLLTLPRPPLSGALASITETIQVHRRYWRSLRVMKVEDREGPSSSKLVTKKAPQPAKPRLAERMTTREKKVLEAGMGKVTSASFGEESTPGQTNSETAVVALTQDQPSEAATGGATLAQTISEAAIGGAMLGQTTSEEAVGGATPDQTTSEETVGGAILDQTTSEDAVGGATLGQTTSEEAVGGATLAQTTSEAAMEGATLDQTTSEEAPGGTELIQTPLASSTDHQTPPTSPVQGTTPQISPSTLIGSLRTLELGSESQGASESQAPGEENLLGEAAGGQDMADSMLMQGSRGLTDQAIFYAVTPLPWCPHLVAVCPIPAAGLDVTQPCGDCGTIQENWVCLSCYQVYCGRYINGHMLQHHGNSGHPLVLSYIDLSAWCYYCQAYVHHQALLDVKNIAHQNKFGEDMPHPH
As to the kind of experiment: Fluor de Lys HDAC6 assay kit. Type of series: biochemical. Here is the method: as §1

The test system of a further series is acetyl-histone H3. Kind of series: Western blot, acetylation of histone H3 in Hela cells. Type of series: cell-based, human. The note with it: 20 and 40 μM, 48 h. Here is the method:
(§2) Afterwards, the Hela cells were collected using centrifugation, and were then lysed by the lysate, which were carried out further centrifugation at 12,000 rpm for 30 min. The protein of supernatant obtained by centrifugation was quantified using the BCA kit (Beijing Solarbio Science & Technology Co., Ltd.), and the protein extracts were mixed with the SDS-PAGE protein loading buffer (Beijing Solarbio Science & Technology Co., Ltd.), which were subject to 100°C water bath for 10 min to sufficiently denaturate. The gel was gelatinized using the SDS Gel Kit (Beijing Solarbio Science & Technology Co., Ltd.) and protein extracts were separated by protein SDS-polyacrylamide gel electrophoresis and then transferred to Immobilon-NC Membrane (Beijing Solarbio Science & Technology Co., Ltd.). After the blocking with 5% non-fat dried milk in TBS for 90 min at room temperature, the membranes were incubated overnight with specific primary antibodies (AFFINITY BIOSCIENCE) at 4°C, which were further incubated with secondary antibodies for 2 h after washing three times with TBST. The chemiluminescence analysis system was applied to label the target protein with a specific primary antibody and the target protein was detected using a specific antibody.

The subject of another series is acetyl-α-tubulin. Kind of series: Western blot, acetylation of α-tubulin in Hela cells. To be noted: 20 and 40 μM, 48 h. It is filed as cell-based, human. The protocol:
as §2
(In general: In western blotting, separated proteins are transferred to a membrane and probed.)

For the next series, the system named is A549. Kind of series: MTT anti-proliferative assay, A549. The note with it: Homo sapiens, A549, 48 h, read-out: IC50 A549.
The subject of a further series is Hela. Kind of series: MTT anti-proliferative assay, Hela. The note with it: Homo sapiens, 48 h, read-out: IC50 Hela. For orientation: Tetrazolium assays rely on reduction of a dye to a coloured formazan, in cell work by metabolically active cells.
The next series deals with HepG2. As to the kind of experiment: MTT anti-proliferative assay, HepG2. The note with it: Homo sapiens, HepG2, 48 h, read-out: IC50 HepG2.
In the next series the test system is MCF-7. As to the kind of experiment: MTT anti-proliferative assay, MCF-7. To be noted: Homo sapiens, MCF7, 48 h, read-out: IC50 MCF-7.
Another series has as its system WI-38. Kind of series: MTT cytotoxicity assay, normal cell line WI-38. To be noted: Homo sapiens, WI-38, 48 h, read-out: IC50 WI-38.
Series [1] relates to HDACs extracted from Hela cervical cancer cells. As to the kind of experiment: Enzyme inhibition assay, Hela nuclear extract (HDAC Inhibitor Drug Screening Kit). To be noted: read-out: Hela nuclear extract IC50; mean ± SD of three experiments.

T1 sequence (Q13547 whole entry): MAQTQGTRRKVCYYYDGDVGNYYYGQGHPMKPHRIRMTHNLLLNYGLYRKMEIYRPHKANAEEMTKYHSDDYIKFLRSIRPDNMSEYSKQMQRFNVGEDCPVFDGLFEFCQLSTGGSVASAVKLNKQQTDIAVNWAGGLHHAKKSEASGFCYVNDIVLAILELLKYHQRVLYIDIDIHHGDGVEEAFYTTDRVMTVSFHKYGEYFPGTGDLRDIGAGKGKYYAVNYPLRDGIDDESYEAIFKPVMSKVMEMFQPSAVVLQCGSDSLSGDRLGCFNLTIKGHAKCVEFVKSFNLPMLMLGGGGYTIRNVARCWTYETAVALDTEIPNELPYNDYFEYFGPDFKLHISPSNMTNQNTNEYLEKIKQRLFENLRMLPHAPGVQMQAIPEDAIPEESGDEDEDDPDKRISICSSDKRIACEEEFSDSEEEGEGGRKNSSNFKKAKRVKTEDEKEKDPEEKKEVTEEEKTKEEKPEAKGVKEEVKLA
Protocol for A549: (§3) The antitumor bioactivities of the tittle compounds in vitro were firstly evaluated against four different human tumor cell lines [breast lung cancer (A549), cervical cancer (Hela), liver cancer (HepG2), breast cancer (MCF-7)] via MTT assay, and a normal cell line [human lung fibroblast (WI-38)] was applied to assess the safety of the synthesized compounds. […] In this study, the tested compounds were diluted to the required concentration with culture medium, and growth inhibitory effects against the cell lines of the tittle compounds were determined by MTT colorimetric assay. […] The microplate reader was adopted to record the absorbance at 490 nm for each well of the plates.
Protocol for HepG2: as §3
Protocol for MCF-7: as §3
Protocol for WI-38: as §3

Broadly, the IC50 is the concentration that inhibits the measured activity by half. By melting point is commonly meant the temperature of the solid-liquid transition. `O=C(CCCCCNC(=O)c1ccc(-c2ccccc2)cc1)NCCO` [b8, N-(6-((2-hydroxyethyl)amino)-6-oxohexyl)-[1, 1'-biphenyl]-4-carboxamide]: the melting point lay in the range of 147.6 to 148.5 °C. In addition, the concentration for half-maximal inhibition (IC50) at HDAC1 stood at 56.5 ± 2.7 µM. Also, the “inhibitory activity on HDAC6 relative to HDAC1” value against HDAC6 (HDAC6 vs HDAC1) was “more than ten folds”. The IC50 against HDAC6 (three independent experiments, mean ± SD) turned out to be 4.2 ± 1.27 µM. In the series on acetyl-histone H3, the “acetylation level of histone H3” value is “insensitive”. The “acetylation level of α-Tubulin” value in the series on acetyl-α-tubulin is given as “increase”. The IC50 with A549 came to 26.5 ± 0.26 µM. Further, the half-maximal inhibitory concentration (IC50) in the series with Hela turned out to be 13.7 ± 1.31 µM. Besides, the IC50 with HepG2 stood at 28.4 ± 0.65 µM. For the same compound, in the series with MCF-7, the IC50 was 40.1 ± 7.05 µM. Besides, the IC50 with WI-38 amounted to 95.9 ± 4.28 µM. Besides, in [1], the IC50 came out at 22.5 ± 5.2 µM.
